The nature of the assay: Radioligand Binding Assay: Binding of this radioligand was preformed in 5 mL borosilicate glass test tubes at room temperature. Binding was initiated by adding membranes to increasing concentrations of [3H]compound in 100 mMNaCl, 20 mMTrisHCl, pH 7.4 buffer containing 0.01% w/v bovine serum albumin (BSA) for 18 h. Non-specific binding was determined in the presence of 1 uM unlabelled compound. …. Details: species or system Homo sapiens.

Description: Radioligand Binding Assay: Binding of this radioligand was preformed in 5 mL borosilicate glass test tubes at room temperature. […] Non-specific binding was determined in the presence of 1 uM unlabelled compound. […] [3H]compound bound to filters was quantified by liquid scintillation counting.

Consider `COC[C@H](c1cc(Cl)cc(Cl)c1)N1CCC[C@@H](Oc2cc(F)c(C(=O)NS(C)(=O)=O)cc2C2CC2)C1`, for which the IC50 is 6 nM.
With `O=C(NS(O)(O)C1CC1)c1cc(C2CC2)c(CN2CCC(Oc3ccc(F)cc3Cl)CC2)cc1F`, the IC50 stood at 14 nM.

(Values after ChEMBL document CHEMBL5725292, “Substituted benzamides and methods of use thereof” (2017).)
